Data: US7470434B1, “Methods and compositions for blocking microbial adherence to eukaryotic cells” (priority 2007, dated 2008)

Columns and labels:
Assay type in all cases: in vivo, human
[1] = system: bacteria adherent to gingival epithelial cells; experiment: Treatment of gingival infection: microbial adherence to gingival epithelial cells (Giemsa-stained gingival scrapings); conditions: for Gingival epithelial cells with 0 Bacteria / Gingival epithelial cells with 1-10 Bacteria / Gingival epithelial cells with 10-100 Bacteria / Gingival epithelial cells with Contiguous lawn: powder on gums twice daily
Text: In this example isoleucine was applied as a pure crystalline powder directly to the gums. The individuals were normal human volunteers. Each individual had clinically evident low grade gingivitis, as determined by the puffiness of the gingival margin and a history of some bleeding during normal dental brushing. Oral health care comprised twice daily flossing and dental brushing with a non-medicated toothpaste. No oral antiseptic was used. The individuals were not taking antibiotics. Isoleucine was applied by application of powder on the fingertip to the outer and inner gum margins of the upper and lower jaws. The entirety of the gingival surface was covered manually, twice daily. The AM application was performed following breakfast, immediately after brushing. The PM application was conducted prior to retiring for sleep.
Gingival surface was gently scrapped with the side of a rectangular glass cover slip and the material described was applied to a glass microscope slide and air-dried. The slide was stained in concentrated Giemsa stain for 1 min, then destained in water for 5 min. The slide was then air-dried and mounted with a cover slip cemented with Permount. Slides were examined by light microscopy at 100× and 400× magnification. Under these staining conditions bacteria were clearly visualized as dark blue particles against the pale gray epithelial cells.
Gingival scrapings were taken in the morning prior to normal oral care and prior to eating. Prior to scraping, the subject rinsed the mouth with a cup of water to wash free particulate matter, unattached cells, and bacteria.
Scrapings were taken 3 days and 1 day prior to isoleucine administration and 1, 3, 5, and 7 days during isoleucine application. […] The bacteria adherent were represented by several different species, distinguished by morphology. […] At least 200 bacteria were counted on the average on each cell.

[2] = Amelioration of irritable bowel syndrome by isoleucine in yogurt
Method: In this example isoleucine was administered to individuals who experienced irritable bowel syndrome (IBS). IBS is a loosely defined condition associated with bowel discomfort including abdominal bloating, nausea, pain and a sense of incomplete bowel movements. The etiology underlying IBS is unknown. It is our hypothesis that IBS results from adherence of certain “pathogenic” commensal organisms to the epithelial lining of certain segments of the GI tract, resulting in disturbance of normal host-bacteria relationships. […] Two women, each in their mid-50's, presented with a history of IBS of over 20 years, in each case. In each, IBS was characterized by a sense of bloating experienced after eating cooked or raw vegetables, fruits, and meat. Each individual experienced urgency to move her bowels several times a day to an extent that often awakened the individuals from sleep. Bloating was accompanied by abdominal discomfort, described as mild cramps. Individuals felt “gassy” most of the day. Each individual was given isoleucine, 1 tsp, twice a day, each dose mixed in ½ cup of yogurt. The yogurt was included to promote reinoculation of the GI tract with probiotic “good” bacteria. In each case, it was known from previous experience that yogurt itself had little effect on the IBS experienced by these individuals. Within 2 day so isoleucine administration, bloating, urgency to defecate, and gassiness had disappeared. Both individuals described the state of their bowel function as “normal”, for the first time in 20 years. […] Each was then withdrawn from isoleucine, and provided yogurt unsupplemented with isoleucine. Within about 2 days both women recorded a reappearance of the former symptoms of IBS.

[3] = system: diarrheal agent (nature not known); experiment: Amelioration of infectious diarrhea by oral isoleucine solution
Method: In this example isoleucine was administered to treat infectious diarrhea. In this example three individuals were naturally innoculated by a common agent. The nature of the diarrheal agent is not known. The duration of diarrhea was consistent with an infectious etiology. Isoleucine was utilized based on the hypothesis that reduction in microbial adherence would likely limit the continued re-infection of the gut wall by the agent, and/or prevent attachment of opportunistic commensal organisms.
Three members of a family traveling in the Middle East (MZ, BZ, JZ) contracted watery diarrhea, associated with food intolerance, following a meal they shared at a restaurant. Each individual had been in excellent health without prior history of GI complaints. All were unmedicated, including aspirin or antihistanines. […] Diarrhea was watery, without gross blood, minimal mucous, slight fever with chills, no nausea, and persistence of hunger. Peristalsis was vigorous and increased by ingestion of food. Each individual was placed on a diet restricted to clear liquids (juices and soda), digestible carbohydrates (bread, rice, candy). No medications were administered.
Six days after ingestion of the diarrheal agent, one individual was begun on oral isoleucine (ILE) therapy, while the other two continued on restricted diets. ILE (#E-2025 Bachem, lot 511191) was dissolved in distilled water to 0.001%. One glass of ILE solution (about 250 ml) was consumed every several hours. A total of about 4 liters was consumed over 3½ days. A reduction in stool frequency was noted within 12 hours of initiation of ILE therapy.
BZ and JZ both continued to experience diarrhea unabated until about 11 days after ingestion of the infectious agent, with stool frequency decreasing noticeably. […] Thus, isoleucine therapy was associated with a shortening of the duration of diarrhea by approximately three days.

bacterial vaginosis = experiment: Amelioration of bacterial vaginosis by local isoleucine powder
Method: In this example isoleucine was administered locally to the vagina to treat the symptoms of bacterial vaginosis. By inhibiting the adherence of bacteria to the wall of the vagina, microbial growth, inflammation, and associated signs of malodorous discharge and symptoms such as pruritis can be treated. A person, with a normal menstrual cycle and in excellent health, experienced vaginal irritation and malodorous discharge associated with their cycle, generally beginning several days prior to the onset of their period. Isoleucine was self-administered as a powder locally within the vaginal cavity digitally, twice a day. Within 2 days symptoms of vaginosis disappeared. Isoleucine therapy was continued for several days following termination of menstrual discharge, and then stopped. […] Isoleucine was again administered during the following months, cycled as described initially.

[4] = Day 1 of isoleucine application
[5] = Day 3 of isoleucine application
[6] = Day 7 of isoleucine application
[7] = 3rd day of ILE therapy, individual

CC[C@H](C)[C@H](N)C(=O)O [isoleucine]
Gingival epithelial cells with 0 Bacteria [1, 4]: 0 % cells | Gingival epithelial cells with 1-10 Bacteria [1, 4]: 10 % cells | Gingival epithelial cells with 10-100 Bacteria [1, 4]: 10 % cells | Gingival epithelial cells with Contiguous lawn [1, 4]: 80 % cells | Adherent bacteria in gingival smear ([1]; Day 3): dramatic reduction | Cells fully covered with bacteria, of 100 cells examined ([1]; Day 3): 40 | Microcolonies (contiguous groupings of greater than 4 organisms) on cells ([1]; Day 3): Few | Neutrophils in gingival smear (sign of inflammation) ([1]; Day 3): No neutrophils were evident | Total adherent bacteria per cell (most cells) ([1]; Day 3): < 100 | Gingival epithelial cells with 0 Bacteria [1, 5]: 15 % cells | Gingival epithelial cells with 1-10 Bacteria [1, 5]: 15 % cells | Gingival epithelial cells with 10-100 Bacteria [1, 5]: 30 % cells | Gingival epithelial cells with Contiguous lawn [1, 5]: 40 % cells | Cells completely free of bacteria ([1]; Day 7): 80% | Cells fully covered with adherent bacteria ([1]; Day 7): 5% | Cells with 1 to 10 bacteria/cell ([1]; Day 7): 15% | Breath as described by an examiner ([1]; Day 7, in the AM, prior to oral hygiene): free of odor | Gingival epithelial cells with 0 Bacteria [1, 6]: 80 % cells | Gingival epithelial cells with 1-10 Bacteria [1, 6]: 15 % cells | Gingival epithelial cells with 10-100 Bacteria [1, 6]: 0 % cells | Gingival epithelial cells with Contiguous lawn [1, 6]: 5 % cells | Change in the number of epithelial cells covered with a dense coat of bacteria ([1]; gingival smear, Day 1 following initiation): little change | Response during maintenance ([2]; maintained on isoleucine for 1 month): consistent response | State of bowel function as described by the individuals ([2]; on isoleucine 1 tsp twice a day in yogurt): normal | Time to reappearance of former symptoms of IBS after withdrawal from isoleucine ([2]; yogurt unsupplemented with isoleucine): ≤ 2 days | Food tolerance [3, 7]: cheese and chicken tolerated | Stools passed [3, 7]: no stools were passed | Shortening of the duration of diarrhea ([3]; MZ on isoleucine versus BZ and JZ on restricted diet only): approximately three | Day following ILE treatment by which a normal stool was passed and the diarrheal episode had passed ([3]; individual MZ): ≤ 4 days | Time to reduction in stool frequency after initiation of ILE therapy ([3]; one individual, 0.001% ILE in distilled water, about 250 ml every several hours, begun six days after ingestion of agent): ≤ 12 h | Status following cessation of isoleucine administration (bacterial vaginosis; after therapy continued several days past menstrual discharge): remained symptom free | Overall outcome of chronic vaginosis (bacterial vaginosis; repeated cycled administration in following months, based on symptoms and signs): effectively cured
